Where a name gives a salt, the structure may show the parent alone.

Data on 13 molecules can be found in patent US5011930A, “Quinoline type mevalonolactones” (Nissan Chemical Industries Ltd., priority 1987, dated 1991).

One assay has as its system cholesterol biosynthesis in Hep G2 cells. Nature of the assay: Test B-1: Inhibition of cholesterol biosynthesis in culture cells (Hep G2). The settings on record: Homo sapiens, HepG2, [2-^14 C]sodium acetate added at 0 hr after addition of compounds, 4 hrs incubation, read-out: Inhibitory activities by Test B-1: I50 (molar concentration). The class given is cell-based. As for the experimental part:
Hep G2 cells at over 5th passage were seeded to 12 well plates and incubated with Dulbecco's modified Eagle (DME) medium containing 10% of fetal bovine serum (FBS) at 37° C., 5% CO2 until cells were confluent for about 7 days. Cells were exposed to the DME medium containing 5% of lipoprotein deficient serum (LpDS) prepared by ultracentrifugation method for over 24 hours. Medium was changed to 0.5 ml of fresh 5% LpDS containing DME before assay and 10 μl of test compound solution dissolved in water or DMSO were added. 0.2 μCi of [2-^14 C]sodium acetate (20 μl) was added at 0 hr(B-1) or 4 hrs(B-2) after addition of compounds. After 4 hrs further incubation with [2-^14 C]sodium acetate, medium was removed and cells were washed with phosphate buffered saline(PBS) chilled at 4° C. Cells were scraped with rubber policeman and collected to tubes with PBS and digested with 0.2 ml of 0.5 N KOH at 37° C. Aliquot of digestion was used for protein analysis and remaining was saponified with 1 ml of 15% EtOH--KOH at 75° C. for 1 hour. […] Counts were revised by cell protein and indicated with DPM/mg protein. Inhibitory activity of compounds was indicated with IC50.
On to `CC(C)c1nc2ccccc2c(-c2ccc(F)cc2)c1/C=C/C(O)CC(O)CC(=O)O` (stereo not drawn) [I-51, Sodium salt of (E)-3,5-dihydroxy-7-[4'-(4"-fluorophenyl)-2'-(1"-methylethyl)-quinolin-3'-yl]-hept-6-enoic acid], for which the IC50 amounted to 100 nM.

The same assay, now with this note: relative to the activity of CS-514 being evaluated to be 1.
On to `CCOC(=O)CC(O)CC(O)/C=C/c1c(C(C)C)nc2cc(OC)c(OC)cc2c1-c1ccc(F)cc1` (stereo not drawn) [I-116], for which the “Relative activities by Test B-1” value amounted to 19.4.

Regarding `O=C(O)CC(O)CC(O)/C=C/c1c(C2CC2)nc2ccccc2c1-c1ccc(F)cc1` (stereo not drawn) [I-520], the “Relative activities by Test B-1” value was 20.0.

Turning to `CCOC(=O)CC(=O)CC(O)/C=C/c1c(C2CC2)nc2ccccc2c1-c1ccc(F)cc1` (stereo not drawn) [II-20], the “Relative activities by Test B-1” value is recorded as 20.8.

In the next assay the test system is cholesterol biosynthesis. Nature of the assay: Test A: Inhibition of cholesterol biosynthesis from acetate in vitro. In kind it is biochemical, male Wistar rat (liver microsome and sup fraction). The settings on record: [2-^14 C]sodium acetate incorporation into nonsaponifiable lipids, 2 hours at 37° C.; IC50; read-out: Inhibitory activities by Test A: I50 (molar concentration). As for the experimental part:
Enzyme solution was prepared from liver of male Wistar rat billialy cannulated and discharged bile for over 24 hours. Liver was cut out at mid-dark and microsome and supernatant fraction which was precipitable with 40-80% of saturation of ammonium sulfate (sup fraction) were prepared from liver homogenate according to the modified method of Knauss et. al.; Kuroda, M., et. al., Biochim. Biophys. Acta, 489, 119 (1977). For assay of cholesterol biosynthesis, microsome (0.1 mg protein) and sup fraction (1.0 mg protein) were incubated for 2 hours at 37° C. in 200 μl of the reaction mixture containing ATP; 1 mM, Glutathione; 6 mM, Glucose-1-phosphate; 10 mM, NAD; 0.25 mM, NADP; 0.25 mM, CoA; 0.04 mM and 0.2 mM [2-^14 C]sodium acetate (0.2 μCi) with 4 μl of test compound solution dissolved in water or dimethyl sulfoxide. To stop reaction and saponify, 1 ml of 15% EtOH-KOH was added to the reactions and heated at 75° C. for 1 hour. […] Inhibitory activity of compounds was indicated with IC50.
In the case of `CC[C@H](C)C(=O)O[C@H]1C[C@H](O)C=C2C=C[C@H](C)[C@H](CC[C@@H](O)C[C@@H](O)CC(=O)O)[C@H]21` [CS-514, reference compound], the IC50 was determined as 9 nM.

As to `CCOC(=O)CC(O)CC(O)/C=C/c1c(C)nc2ccccc2c1-c1ccccc1` (stereo not drawn) [I-13], the IC50 worked out at 125 nM.

Turning to `CC(C)c1nc2ccccc2c(-c2ccc(F)cc2)c1/C=C/C(O)CC(O)CC(=O)O` (stereo not drawn) [I-51, Sodium salt of (E)-3,5-dihydroxy-7-[4'-(4"-fluorophenyl)-2'-(1"-methylethyl)-quinolin-3'-yl]-hept-6-enoic acid], the IC50 stood at 10 nM.

For `Cc1nc2ccccc2c(-c2ccc(F)cc2)c1/C=C/C(O)CC(O)CC(=O)O` (stereo not drawn) [I-52], the IC50 was determined as 71 nM.

On to `Cc1nc2ccccc2c(-c2ccccc2)c1/C=C/C(O)CC(O)CC(=O)O` (stereo not drawn) [I-53], for which the IC50 was 190 nM.

For `CC[C@H](C)C(=O)O[C@H]1C[C@@H](C)C=C2C=C[C@H](C)[C@H](CC[C@@H]3C[C@@H](O)CC(=O)O3)[C@H]21` [Mevinolin, reference compound], the IC50 was determined as 14 nM.

The assay is the same for the next values; noted with them: relative to the activity of CS-514 being evaluated to be 1.
Consider `CCOC(=O)CC(O)CC(O)/C=C/c1c(C(C)C)nc2ccc(Cl)cc2c1-c1ccccc1` (stereo not drawn) [I-16], for which the “Relative activities by Test A” value is listed as 1.75.

Consider `CCOC(=O)CC(O)CC(O)/C=C/c1c(C(C)C)nc2cc(OC)c(OC)cc2c1-c1ccc(F)cc1` (stereo not drawn) [I-116], for which the “Relative activities by Test A” value is 2.25.

Consider `CCOC(=O)CC(O)CC(O)/C=C/c1c(CC)nc2ccccc2c1-c1ccc(F)cc1` (stereo not drawn) [I-117], for which the “Relative activities by Test A” value is on record as 0.37.

`CCOC(=O)CC(O)CC(O)/C=C/c1c(C2CC2)nc2ccccc2c1-c1ccc(F)cc1` (stereo not drawn) [I-120]: the “Relative activities by Test A” value is on record as 3.21.

With `CC(C)c1nc2c(Cl)cc(Cl)cc2c(-c2ccc(F)cc2)c1/C=C/C(O)CC(O)CC(=O)O` (stereo not drawn) [I-522], the “Relative activities by Test A” value worked out at 0.76.
